Measured values reported in ChEMBL document CHEMBL1201862, “PubChem BioAssay data set” (2004).
Active and inactive are the calls of the source.

Experiments:
[1] = Trypanosoma cruzi growth suppression in host cells – NIH3T3 host cells, beta-gal luminescence, confirmation (AID 2044); assay type: functional, cell-based;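 further: intracellular parasites grown in NIH/3T3 mouse fibroblasts as host cells; luminescent beta-galactosidase reporter signal from transgenic T. cruzi replicating inside host cells; inhibitors lower the luminescence signal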
[2] = NIH3T3 cell viability loss – ATP luminescence, mouse fibroblasts, counter-screen, dose response (AID 2010); assay type: functional, cell-based;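 further: cells exposed to compound for about 90 hours before reading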
[3] = target: Nuclear receptor subfamily 5 group A member 2 (Homo sapiens, UniProt O00482); assay type: functional, cell-based;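 further: HEK293T cells transfected with LRH-1 and a StAR promoter luciferase reporter; potency for inhibitors that lower LRH-1 driven reporter light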
Steroidogenic factor 1 = Steroidogenic factor 1 (Homo sapiens, UniProt Q13285); test: Counterscreen for inverse agonists of the liver receptor homolog-1 (LRH-1; NR5A2): Luminescence-based cell-based high throughput dose response assay to identify inverse agonists of the Steroidogenic Factor 1 Nuclear Receptor (SF1; NR5A1).; assay type: functional
[4] = nonselective StAR promoter luciferase inhibitors – cell-based, luminescence, luciferase reporter, counter-screen for LRH-1 inverse agonist project, dose response (AID 651969); assay type: functional
Beta-lactamase [5] = target: Beta-lactamase (Salmonella choleraesuis (strain SC-B67), UniProt Q5J463); test: Epi-absorbance-based counterscreen for selective VIM-2 inhibitors: dose response biochemical high throughput screening assay to identify inhibitors of TEM-1 serine-beta-lactamase.
Beta-lactamase [6] = target: T1, Beta-lactamase (Pseudomonas aeruginosa, UniProt Q79MP6); test: inhibition of IMP-1 beta-lactamase activity – biochemical, epi-absorbance, selectivity assay for VIM-2 inhibitor project, dose response (AID 1920)
Beta-lactamase [7] = target: T1, Beta-lactamase; test: […] counterscreen for selective VIM-2 inhibitors: dose response biochemical high throughput screening assay to identify inhibitors of IMP-1 metallo-beta-lactamase.
[8] = target: Dual specificity tyrosine-phosphorylation-regulated kinase 1A (Rattus norvegicus, UniProt Q63470); assay type: biochemical, Homo sapiens
[9] = target: T2, Methionyl-tRNA synthetase, putative (Trypanosoma brucei brucei, UniProt Q38C91); assay type: functional, Trypanosoma brucei brucei strain 927/4 GUTat10.1
T2 sequence (Q38C91 whole entry): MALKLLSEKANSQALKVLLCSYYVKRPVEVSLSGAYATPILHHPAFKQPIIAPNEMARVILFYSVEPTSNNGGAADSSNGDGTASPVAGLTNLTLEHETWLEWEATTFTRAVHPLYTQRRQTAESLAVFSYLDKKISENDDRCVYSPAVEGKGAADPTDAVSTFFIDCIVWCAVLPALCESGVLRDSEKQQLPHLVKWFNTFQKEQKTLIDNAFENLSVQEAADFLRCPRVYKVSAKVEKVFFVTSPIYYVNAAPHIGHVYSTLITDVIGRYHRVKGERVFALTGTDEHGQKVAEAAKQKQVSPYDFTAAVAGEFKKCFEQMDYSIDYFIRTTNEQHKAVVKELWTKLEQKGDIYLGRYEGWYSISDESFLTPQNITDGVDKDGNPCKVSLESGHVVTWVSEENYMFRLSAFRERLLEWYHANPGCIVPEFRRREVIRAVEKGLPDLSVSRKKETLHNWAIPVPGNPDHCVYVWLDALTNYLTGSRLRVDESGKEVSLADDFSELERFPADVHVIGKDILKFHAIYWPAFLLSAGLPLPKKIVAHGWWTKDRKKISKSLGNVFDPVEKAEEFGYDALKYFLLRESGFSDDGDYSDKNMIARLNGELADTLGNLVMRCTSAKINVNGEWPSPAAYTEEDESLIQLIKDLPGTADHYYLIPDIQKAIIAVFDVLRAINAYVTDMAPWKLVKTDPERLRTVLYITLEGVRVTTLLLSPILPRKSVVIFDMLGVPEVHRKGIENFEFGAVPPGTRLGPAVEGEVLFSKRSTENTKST

[10] = Counterscreen for inhibitors of Trypanosoma brucei methionyl tRNA synthetase (MetRS): Luminescence-based cell-based high throughput dose response assay to identify compounds that are cytotoxic to Jurkat human T lymphocyte cells.; assay type: functional
[11] = target: T2, Methionyl-tRNA synthetase, putative; assay type: functional, Trypanosoma brucei brucei strain 927/4 GUTat10.1; remark: listed apart in the source
[12] = reduction of Shn3 3'UTR-driven luciferase in osteoblasts – cell-based, Clone20 osteoblasts, firefly luciferase, cherry-picked, dose response (AID 624132); assay type: functional;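 further: firefly luciferase luminescence from reporter carrying the Shn3 3'UTR in osteoblasts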
[13] = target: 26S proteasome non-ATPase regulatory subunit 14 (Homo sapiens, UniProt O00487); test: inhibition of proteasome subunit RPN11 – biochemical, fluorescence polarization, uHTS hits, confirmation (AID 602368); assay type: functional
[14] = loss of viability in HepG2 cells – cell-based, CellTiter-Glo, cherry-picked, cytotoxicity control for Shn3 inhibitor project, dose response (AID 624134); assay type: functional
[15] = non-specific 3'UTR reporter inhibition in Clone20-Shn3RL – cell-based, Renilla luciferase, cherry-picked, counter-screen for Shn3 inhibitor project, dose response (AID 624133); assay type: functional
[16] = target: 72 kDa type IV collagenase (Homo sapiens, UniProt P08253); test: Dose Response validation of uHTS RPN11 inhibitor hits using a MMP-2 Fluorescence assay.; assay type: functional
Prothrombin = Prothrombin (Bos taurus, UniProt P00735); test: thrombin protease inhibitors – biochemical, fluorescence polarization, uHTS hits, dose response (AID 602369); assay type: functional
[17] = target: T3, Sentrin-specific protease 1 (Homo sapiens, UniProt Q9P0U3); test: SENP1 catalytic domain blockers, concentration series – biochemical, kinetic FRET, dose response (AID 651697); assay type: functional; conditions: read-out: IC50_Mean
T3 sequence (Q9P0U3 whole entry): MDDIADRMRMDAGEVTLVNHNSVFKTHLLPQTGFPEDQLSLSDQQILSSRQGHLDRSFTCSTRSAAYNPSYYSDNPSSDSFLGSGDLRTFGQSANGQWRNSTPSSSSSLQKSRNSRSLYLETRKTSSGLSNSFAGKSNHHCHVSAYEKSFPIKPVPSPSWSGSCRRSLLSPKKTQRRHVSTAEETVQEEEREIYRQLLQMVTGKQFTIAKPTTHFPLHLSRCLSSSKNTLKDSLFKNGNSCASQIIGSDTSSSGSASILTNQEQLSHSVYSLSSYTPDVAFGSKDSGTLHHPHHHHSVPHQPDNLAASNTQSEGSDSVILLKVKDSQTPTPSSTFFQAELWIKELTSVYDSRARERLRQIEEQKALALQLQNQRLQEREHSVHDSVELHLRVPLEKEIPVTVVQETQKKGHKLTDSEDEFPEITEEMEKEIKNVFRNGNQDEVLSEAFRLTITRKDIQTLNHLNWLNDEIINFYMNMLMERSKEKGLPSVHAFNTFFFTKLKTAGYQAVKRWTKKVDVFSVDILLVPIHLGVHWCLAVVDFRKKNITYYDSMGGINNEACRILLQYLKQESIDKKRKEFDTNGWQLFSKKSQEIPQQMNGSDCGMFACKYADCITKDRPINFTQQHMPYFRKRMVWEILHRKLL

[18] = target: T3, Sentrin-specific protease 1; test: Dose response confirmation of small molecule inhibitors of the catalytic domain of the SUMO protease, SENP1 in a FRET assay.; assay type: functional; conditions: read-out: IC50_Mean
[19] = potency of ADAM10 substrate cleavage blockers – biochemical, QFRET, dose response (AID 743254);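 further: ADAM10 enzyme with the DM2 quenched FRET peptide as substrate; EDANS fluorescence gain as the protease cuts the substrate; inhibitor potency against ADAM10 proteolytic activity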
[20] = target: Disintegrin and metalloproteinase domain-containing protein 17 (Homo sapiens, UniProt P78536); test: inhibition of ADAM17 substrate cleavage – biochemical, quenched FRET substrate, counter-screen for ADAM10 exosite inhibitor project, dose response (AID 743253)
Albumin = Albumin (Bos taurus, UniProt P02769); test: Counterscreen for inhibitors of T-cell receptor (TCR)-CD3 interaction: Fluorescence-based biochemical high throughput dose response assay to identify inhibitors of T-cell receptor (TCR)-CD3 interaction using a TAMRA-labeled BSA probe.; assay type: functional
[21] = target: T4, COUP transcription factor 2 (Homo sapiens, UniProt P24468); test: Luminescence-based cell-based high throughput dose response assay to identify inhibitors of COUP-TFII (NR2F2).; assay type: functional;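 further: HEK293 cells transiently cotransfected with COUP-TFII expression vector and reporter; luciferase reporter luminescence driven by COUP-TFII from the pX2-168 reporter plasmid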
T4 sequence (P24468 whole entry): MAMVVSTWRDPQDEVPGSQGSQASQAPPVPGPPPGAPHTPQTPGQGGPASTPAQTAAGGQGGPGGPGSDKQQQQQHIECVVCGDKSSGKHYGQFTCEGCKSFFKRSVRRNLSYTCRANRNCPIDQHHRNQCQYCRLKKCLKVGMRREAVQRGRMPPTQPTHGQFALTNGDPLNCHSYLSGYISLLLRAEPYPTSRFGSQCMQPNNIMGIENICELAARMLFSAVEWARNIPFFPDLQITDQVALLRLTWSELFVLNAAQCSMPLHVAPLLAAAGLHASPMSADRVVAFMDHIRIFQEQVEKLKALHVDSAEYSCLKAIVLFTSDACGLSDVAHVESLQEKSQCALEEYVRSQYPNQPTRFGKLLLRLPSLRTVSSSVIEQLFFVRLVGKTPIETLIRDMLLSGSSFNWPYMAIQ

[22] = target: T5, Small ubiquitin-related modifier 1 (Homo sapiens, UniProt P63165); test: SUMO1 protein interaction blockers, potency – biochemical, fluorescence polarization, uHTS hits, dose response (AID 624382); assay type: functional; conditions: read-out: IC50_Mean
[23] = target: T5, Small ubiquitin-related modifier 1; test: SUMO1 protein-protein binding blockers, potency – biochemical, FRET, dose response (AID 624383); assay type: functional; conditions: read-out: IC50_Mean
[24] = A2780 cell killing – plate reader, dry powder samples, cytotoxicity control, dose response (AID 743046); assay type: functional, cell-based

T1 sequence (Q79MP6 whole entry): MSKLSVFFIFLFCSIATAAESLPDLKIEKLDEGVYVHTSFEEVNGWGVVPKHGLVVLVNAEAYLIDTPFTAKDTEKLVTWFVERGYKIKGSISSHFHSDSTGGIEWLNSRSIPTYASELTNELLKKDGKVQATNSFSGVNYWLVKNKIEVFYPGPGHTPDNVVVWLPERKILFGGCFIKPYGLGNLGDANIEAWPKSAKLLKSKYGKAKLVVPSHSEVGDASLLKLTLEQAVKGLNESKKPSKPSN
Beta-lactamase (Salmonella choleraesuis (strain SC-B67), UniProt Q5J463), sequence (Q5J463 whole entry): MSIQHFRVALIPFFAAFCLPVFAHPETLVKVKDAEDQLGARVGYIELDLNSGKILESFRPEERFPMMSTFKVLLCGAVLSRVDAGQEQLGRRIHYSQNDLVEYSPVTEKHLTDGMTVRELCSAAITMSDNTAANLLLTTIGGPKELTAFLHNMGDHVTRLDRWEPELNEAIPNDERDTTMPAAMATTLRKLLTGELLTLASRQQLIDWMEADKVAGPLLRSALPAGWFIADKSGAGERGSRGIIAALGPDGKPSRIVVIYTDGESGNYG
Nuclear receptor subfamily 5 group A member 2, sequence (O00482 whole entry): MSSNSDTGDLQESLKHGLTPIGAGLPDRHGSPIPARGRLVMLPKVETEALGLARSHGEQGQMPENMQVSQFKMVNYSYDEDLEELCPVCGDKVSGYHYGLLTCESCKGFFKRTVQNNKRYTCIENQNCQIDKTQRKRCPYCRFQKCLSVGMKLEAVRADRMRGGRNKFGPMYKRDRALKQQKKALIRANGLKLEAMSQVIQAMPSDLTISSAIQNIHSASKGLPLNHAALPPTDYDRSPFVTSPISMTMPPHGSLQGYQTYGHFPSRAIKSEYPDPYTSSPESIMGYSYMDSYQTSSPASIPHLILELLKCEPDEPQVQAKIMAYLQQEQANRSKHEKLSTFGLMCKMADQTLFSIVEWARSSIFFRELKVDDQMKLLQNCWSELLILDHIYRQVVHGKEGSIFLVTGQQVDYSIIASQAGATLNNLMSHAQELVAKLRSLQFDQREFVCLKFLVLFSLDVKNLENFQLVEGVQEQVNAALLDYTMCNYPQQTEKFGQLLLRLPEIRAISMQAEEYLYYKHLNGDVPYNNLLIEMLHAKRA
Steroidogenic factor 1, sequence (Q13285 whole entry): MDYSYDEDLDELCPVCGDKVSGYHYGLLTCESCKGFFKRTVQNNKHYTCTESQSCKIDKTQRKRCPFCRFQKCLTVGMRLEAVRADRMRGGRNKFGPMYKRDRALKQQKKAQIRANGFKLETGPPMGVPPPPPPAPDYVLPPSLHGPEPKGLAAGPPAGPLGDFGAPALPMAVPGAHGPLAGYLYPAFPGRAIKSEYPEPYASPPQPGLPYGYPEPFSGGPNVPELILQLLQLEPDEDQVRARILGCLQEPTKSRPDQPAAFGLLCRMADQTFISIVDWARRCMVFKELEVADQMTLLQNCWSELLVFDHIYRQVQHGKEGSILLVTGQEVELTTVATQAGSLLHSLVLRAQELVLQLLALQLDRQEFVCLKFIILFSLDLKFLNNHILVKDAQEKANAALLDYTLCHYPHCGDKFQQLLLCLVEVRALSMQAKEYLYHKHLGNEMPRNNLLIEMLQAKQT
Disintegrin and metalloproteinase domain-containing protein 17, sequence (P78536 whole entry, the tested form may be a part): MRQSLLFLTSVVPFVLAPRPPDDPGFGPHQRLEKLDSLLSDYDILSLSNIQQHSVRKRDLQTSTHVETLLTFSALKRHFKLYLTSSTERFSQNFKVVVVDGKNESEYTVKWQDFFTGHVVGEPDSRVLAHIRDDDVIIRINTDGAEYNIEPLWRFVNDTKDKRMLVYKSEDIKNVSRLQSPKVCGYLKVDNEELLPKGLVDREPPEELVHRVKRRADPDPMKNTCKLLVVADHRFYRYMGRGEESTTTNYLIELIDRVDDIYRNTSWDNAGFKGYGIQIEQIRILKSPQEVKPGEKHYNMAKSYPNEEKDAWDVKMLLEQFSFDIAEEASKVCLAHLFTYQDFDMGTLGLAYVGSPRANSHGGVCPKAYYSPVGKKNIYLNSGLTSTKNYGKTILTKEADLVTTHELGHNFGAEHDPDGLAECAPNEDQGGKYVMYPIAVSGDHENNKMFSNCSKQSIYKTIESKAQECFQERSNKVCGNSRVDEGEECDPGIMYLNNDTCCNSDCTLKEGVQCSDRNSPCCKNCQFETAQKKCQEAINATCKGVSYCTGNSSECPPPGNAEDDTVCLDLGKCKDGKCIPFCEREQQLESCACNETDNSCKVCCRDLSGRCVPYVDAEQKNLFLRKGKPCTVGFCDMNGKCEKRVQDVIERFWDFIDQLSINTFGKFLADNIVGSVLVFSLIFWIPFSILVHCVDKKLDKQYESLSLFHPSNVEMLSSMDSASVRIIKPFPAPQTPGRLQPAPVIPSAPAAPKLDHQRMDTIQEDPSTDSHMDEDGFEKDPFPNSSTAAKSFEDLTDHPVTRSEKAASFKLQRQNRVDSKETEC
T5 sequence (P63165 whole entry): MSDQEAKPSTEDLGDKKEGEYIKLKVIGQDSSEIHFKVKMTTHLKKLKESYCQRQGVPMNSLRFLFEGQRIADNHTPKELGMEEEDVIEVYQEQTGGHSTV
Albumin, sequence (P02769 whole entry): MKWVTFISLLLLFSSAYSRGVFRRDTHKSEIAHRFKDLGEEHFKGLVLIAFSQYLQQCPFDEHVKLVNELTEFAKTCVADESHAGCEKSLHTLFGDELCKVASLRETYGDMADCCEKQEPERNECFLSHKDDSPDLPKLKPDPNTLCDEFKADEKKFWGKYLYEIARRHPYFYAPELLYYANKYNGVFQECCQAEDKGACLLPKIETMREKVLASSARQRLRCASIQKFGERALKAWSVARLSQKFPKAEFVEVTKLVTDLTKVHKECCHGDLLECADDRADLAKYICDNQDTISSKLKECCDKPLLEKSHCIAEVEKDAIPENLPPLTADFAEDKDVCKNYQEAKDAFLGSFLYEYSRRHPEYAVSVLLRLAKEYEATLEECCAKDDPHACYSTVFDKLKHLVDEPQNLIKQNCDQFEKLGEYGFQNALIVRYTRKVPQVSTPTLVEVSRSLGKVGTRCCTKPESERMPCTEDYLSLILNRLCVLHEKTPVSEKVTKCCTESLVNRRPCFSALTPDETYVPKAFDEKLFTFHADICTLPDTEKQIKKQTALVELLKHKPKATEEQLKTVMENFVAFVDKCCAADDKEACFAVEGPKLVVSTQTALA
26S proteasome non-ATPase regulatory subunit 14, sequence (O00487 whole entry): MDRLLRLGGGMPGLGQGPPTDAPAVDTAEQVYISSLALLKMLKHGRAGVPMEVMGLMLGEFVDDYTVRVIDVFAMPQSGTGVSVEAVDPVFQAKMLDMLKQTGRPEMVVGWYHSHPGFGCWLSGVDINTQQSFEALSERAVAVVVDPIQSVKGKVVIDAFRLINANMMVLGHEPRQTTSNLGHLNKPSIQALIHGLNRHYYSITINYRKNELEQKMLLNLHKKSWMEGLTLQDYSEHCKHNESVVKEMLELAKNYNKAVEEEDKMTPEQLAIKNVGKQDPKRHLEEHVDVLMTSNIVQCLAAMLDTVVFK
72 kDa type IV collagenase, sequence (P08253 whole entry): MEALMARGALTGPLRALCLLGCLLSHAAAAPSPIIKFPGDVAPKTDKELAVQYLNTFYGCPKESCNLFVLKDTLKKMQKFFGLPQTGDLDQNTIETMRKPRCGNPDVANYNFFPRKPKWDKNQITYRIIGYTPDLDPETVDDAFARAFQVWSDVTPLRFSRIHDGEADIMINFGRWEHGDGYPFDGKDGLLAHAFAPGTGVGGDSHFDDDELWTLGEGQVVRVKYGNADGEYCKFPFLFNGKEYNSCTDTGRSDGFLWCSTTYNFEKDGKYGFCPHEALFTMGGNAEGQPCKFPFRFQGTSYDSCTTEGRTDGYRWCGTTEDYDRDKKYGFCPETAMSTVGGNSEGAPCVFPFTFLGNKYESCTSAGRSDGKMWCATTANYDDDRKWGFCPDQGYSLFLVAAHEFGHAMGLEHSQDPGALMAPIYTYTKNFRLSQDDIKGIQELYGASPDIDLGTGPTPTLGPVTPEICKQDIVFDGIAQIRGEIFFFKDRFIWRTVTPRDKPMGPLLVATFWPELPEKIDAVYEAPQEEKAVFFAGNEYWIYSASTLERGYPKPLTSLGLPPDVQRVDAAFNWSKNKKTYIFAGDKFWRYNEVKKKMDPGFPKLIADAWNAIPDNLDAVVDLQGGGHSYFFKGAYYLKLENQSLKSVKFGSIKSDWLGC

CN1CCN(c2ccc(S(=O)(=O)N3CCCCC3)cc2NC(=O)COc2ccc([N+](=O)[O-])cc2)CC1
EC50 [1]: 353 nM (active)
EC50 [2]: > 30 µM (not active)
IC50 [3]: 35.9 µM (inactive)
IC50 (Steroidogenic factor 1): 1.48 µM (active)
IC50 [4]: 35.9 µM (inactive)

O=C(O)c1[nH]c2ccc(Cl)cc2c1CCN1C(=O)c2ccccc2C1=O
IC50 (Beta-lactamase [5]): > 59.6 µM (inactive)
IC50 (Beta-lactamase [6]): > 59.6 µM (inactive)
IC50 (Beta-lactamase [7]): > 59.6 µM (inactive)
AC50 [8]: 13.6 µM (active)

Clc1cccc(CNc2nc(-c3cccnc3)nc3ccccc23)c1
EC50 [1]: 952 nM (active)
EC50 [2]: > 60 µM (not active)
IC50 [9]: 32 µM (inactive)
IC50 [10]: 41.9 µM (inactive)
IC50 [11]: 16.4 µM (inactive)

COc1ccc(-c2cc(C(F)(F)F)nc(N3CCN(C)CC3)n2)cc1
IC50 (Beta-lactamase [5]): > 59.6 µM (inactive)
IC50 (Beta-lactamase [6]): > 59.6 µM (inactive)
IC50 (Beta-lactamase [7]): > 59.6 µM (inactive)

CC1CCCC(C)N1C(=O)CSc1nnc(NC(=O)c2cccs2)s1 (stereo not given)
IC50 (Beta-lactamase [5]): > 59.6 µM (inactive)
IC50 (Beta-lactamase [6]): > 59.6 µM (inactive)
IC50 (Beta-lactamase [7]): > 59.6 µM (inactive)

CCc1ccc(NC(=O)C2CCN(S(=O)(=O)c3ccc4c(c3)NC(=O)C(C)S4)CC2)cc1 (stereo not given)
AC50 [12]: 7.08 µM (active)
IC50 [13]: 31.8 µM (active)
AC50 [14]: 6.54 µM (active)
AC50 [15]: 6 µM (active)
IC50 [16]: > 100 µM (inactive)
IC50 (Prothrombin): 42 µM (active)

Cc1cc(NC(=O)CSc2nc3ccccc3cc2C#N)no1
IC50 [17]: 19.3 µM (active)
IC50 [18]: 11 µM (active)

COC(=O)c1ccc(-c2cc3onc(-c4ccccc4)c3c(=O)n2C)cc1
IC50 [19]: > 69.5 µM (inactive)
IC50 [20]: > 69.5 µM (inactive)

COc1ccc(C(=O)NNC(=S)NC(=O)c2cccnc2)cc1
IC50 (Albumin): > 94.1 µM (inactive)

CCCc1cc(=O)oc2cc(OCC(=O)NCc3ccccn3)ccc12
IC50 [3]: 35.9 µM (inactive)
IC50 (Steroidogenic factor 1): 1.97 µM (active)
IC50 [4]: 35.9 µM (inactive)

Cc1cc(/C=C2/SC(=S)N(c3cccc(Cl)c3)C2=O)c(C)n1-c1cccnc1
AC50 [12]: 0.979 µM (active)
AC50 [14]: 47.8 µM (active)
AC50 [15]: 3.55 µM (active)
IC50 [21]: 5.65 µM (active)

O=C(CSc1nnc(CNC(=O)c2c(F)cccc2F)o1)Nc1ccc2c(c1)OCCO2
IC50 [3]: 35.9 µM (inactive)
IC50 (Steroidogenic factor 1): 31 µM (inactive)
IC50 [4]: 35.9 µM (inactive)

Cc1cccc(C)c1-n1nnnc1-c1nc2cc3ccccc3cc2nc1O
IC50 [17]: 7.1 µM (active)
IC50 [18]: 1.93 µM (active)

COc1ccc(Cl)cc1Nc1nc(-c2sc(NC(=O)C(C)(C)C)nc2C)cs1
IC50 [22]: > 66.6 µM (inactive)
IC50 [23]: 7.99 µM (active)
IC50 [21]: 11.2 µM (inactive)

COC(=O)c1ccc(-c2nc(O)c(C)s2)cc1
IC50 [17]: 7.31 µM (active)
IC50 [18]: 8.08 µM (active)

C[C@@H]1CN([C@@H](C)CO)C(=O)c2cc(NC(=O)Nc3ccccc3)ccc2O[C@@H](C)CCCCO[C@H]1CN(C)Cc1ccc(Cl)c(Cl)c1
AC50 [24]: 3.59 µM (active)

C[C@@H]1CCCCO[C@@H](CN(C)C(=O)Nc2ccc3c(c2)OCO3)[C@@H](C)CN([C@H](C)CO)C(=O)c2cc(NC(=O)Nc3ccc(C(F)(F)F)cc3)ccc2O1
IC50 [19]: > 69.5 µM (inactive)
IC50 [20]: > 69.5 µM (inactive)

O=C(CSc1nc2ccccc2s1)N/N=C/c1cc([N+](=O)[O-])ccc1O
IC50 (Albumin): > 94.1 µM (inactive)

O=C(CN1CCS/C1=N/Cc1ccccc1)c1ccc(Cl)c(Cl)c1
IC50 [9]: 3.92 µM (active)
IC50 [10]: 48.2 µM (inactive)
IC50 [11]: 2.67 µM (active)
